The values that follow come from patent USRE50528E1, “Compounds and compositions for modulating EGFR mutant kinase activities” (Yuhan Corporation, priority 2014, dated 2025).

Test [1] concerns the target T1, EGFR mutant L858R (Homo sapiens, UniProt P00533, L858R).
T1 construct: truncated human JAK3, EGFR mutants such as del E746-A750; purchased Carna Biosciences
The experiment in a line: Kinase inhibition assay, EGFR L858R.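 Further: truncated human EGFR L858R kinase with compound preincubation, ULight-PolyGT peptide phosphorylation read by Europium-antibody Lance detection, IC50.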 The test is classed as biochemical. The note with it: read-out: EGFR mutants L858R.

Test [2] concerns the target T2, EGFR mutant Del19 (E746-A750) (Homo sapiens, UniProt P00533, DEL746-750).
T2 construct: truncated human JAK3, EGFR mutants such as del E746-A750; purchased Carna Biosciences
The experiment in a line: Kinase inhibition assay, EGFR del E746-A750.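 Further: truncated human EGFR mutant kinase, two-hour preincubation with compound, then one-hour reaction with ATP and ULight-PolyGT peptide, LANCE Europium-antibody phosphorylation readout, IC50.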 The class given is biochemical. The note with it: read-out: EGFR mutants Del19 (E746-A750).

Test [3] concerns the target T3, SYK (Homo sapiens, UniProt P43405).
T3 construct: Purified human, full-length SYK, KDR; purchased Carna Biosciences
As to the kind of experiment: Kinase inhibition assay, SYK.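 Further: purified full-length human SYK pre-incubated 30 min with compound, then ULight-TK peptide phosphorylation for 1 h, detected with Europium-labeled antibody in Lance buffer.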 The note with it: biochemical potency. The class given is biochemical.

Test [4] addresses T4, EGFR mutant Del19/T790M (Homo sapiens, UniProt P00533, DEL746-750/T790M).
T4 construct: truncated human JAK3, EGFR mutants such as del E746-A750; purchased Carna Biosciences
The experiment in a line: Kinase inhibition assay, EGFR del E746-A750/T790M. The class given is biochemical. Particulars: read-out: EGFR mutants Del19/T790M.

For test [5], the target named is T5, JAK3 (Homo sapiens, UniProt P52333).
T5 construct: EGFR and JAK3 (JH1domain-catalytic) kinases, and mutant forms thereof; purchased Carna Biosciences
T5 sequence (P52333 822-1111 limits assumed): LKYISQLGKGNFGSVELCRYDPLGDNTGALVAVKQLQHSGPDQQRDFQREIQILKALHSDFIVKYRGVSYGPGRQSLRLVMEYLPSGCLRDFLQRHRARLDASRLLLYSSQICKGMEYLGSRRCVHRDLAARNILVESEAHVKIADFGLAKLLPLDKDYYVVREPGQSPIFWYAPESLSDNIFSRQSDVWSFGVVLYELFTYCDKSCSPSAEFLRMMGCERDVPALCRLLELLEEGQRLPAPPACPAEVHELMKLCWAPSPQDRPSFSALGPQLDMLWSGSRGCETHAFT
The experiment in a line: Kinase inhibition assay, JAK3.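 Further: IC50 against purified truncated human JAK3 preincubated with compound, then reacted with ATP and ULight-Jak1 peptide, phosphorylation read by Europium-labeled antibody LANCE detection.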 Particulars: biochemical potency.

Test [6] concerns the target T6, EGFR mutant L858R/T790M (Homo sapiens, UniProt P00533, L858R/T790M).
T6 construct: truncated human JAK3, EGFR mutants such as del E746-A750; purchased Carna Biosciences
The experiment in a line: Kinase inhibition assay, EGFR L858R/T790M.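 Further: truncated human enzyme preincubated two hours with compound, then one hour with one millimolar ATP and ULight-PolyGT peptide, Europium-labeled antibody detection, IC50.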 The class given is biochemical. The note with it: read-out: EGFR mutants L858R/T790M.

The target in test [7] is T7, KDR (Homo sapiens, UniProt P35968).
T7 construct: Purified human, full-length SYK, KDR; purchased Carna Biosciences
T7 sequence (P35968 20-1356): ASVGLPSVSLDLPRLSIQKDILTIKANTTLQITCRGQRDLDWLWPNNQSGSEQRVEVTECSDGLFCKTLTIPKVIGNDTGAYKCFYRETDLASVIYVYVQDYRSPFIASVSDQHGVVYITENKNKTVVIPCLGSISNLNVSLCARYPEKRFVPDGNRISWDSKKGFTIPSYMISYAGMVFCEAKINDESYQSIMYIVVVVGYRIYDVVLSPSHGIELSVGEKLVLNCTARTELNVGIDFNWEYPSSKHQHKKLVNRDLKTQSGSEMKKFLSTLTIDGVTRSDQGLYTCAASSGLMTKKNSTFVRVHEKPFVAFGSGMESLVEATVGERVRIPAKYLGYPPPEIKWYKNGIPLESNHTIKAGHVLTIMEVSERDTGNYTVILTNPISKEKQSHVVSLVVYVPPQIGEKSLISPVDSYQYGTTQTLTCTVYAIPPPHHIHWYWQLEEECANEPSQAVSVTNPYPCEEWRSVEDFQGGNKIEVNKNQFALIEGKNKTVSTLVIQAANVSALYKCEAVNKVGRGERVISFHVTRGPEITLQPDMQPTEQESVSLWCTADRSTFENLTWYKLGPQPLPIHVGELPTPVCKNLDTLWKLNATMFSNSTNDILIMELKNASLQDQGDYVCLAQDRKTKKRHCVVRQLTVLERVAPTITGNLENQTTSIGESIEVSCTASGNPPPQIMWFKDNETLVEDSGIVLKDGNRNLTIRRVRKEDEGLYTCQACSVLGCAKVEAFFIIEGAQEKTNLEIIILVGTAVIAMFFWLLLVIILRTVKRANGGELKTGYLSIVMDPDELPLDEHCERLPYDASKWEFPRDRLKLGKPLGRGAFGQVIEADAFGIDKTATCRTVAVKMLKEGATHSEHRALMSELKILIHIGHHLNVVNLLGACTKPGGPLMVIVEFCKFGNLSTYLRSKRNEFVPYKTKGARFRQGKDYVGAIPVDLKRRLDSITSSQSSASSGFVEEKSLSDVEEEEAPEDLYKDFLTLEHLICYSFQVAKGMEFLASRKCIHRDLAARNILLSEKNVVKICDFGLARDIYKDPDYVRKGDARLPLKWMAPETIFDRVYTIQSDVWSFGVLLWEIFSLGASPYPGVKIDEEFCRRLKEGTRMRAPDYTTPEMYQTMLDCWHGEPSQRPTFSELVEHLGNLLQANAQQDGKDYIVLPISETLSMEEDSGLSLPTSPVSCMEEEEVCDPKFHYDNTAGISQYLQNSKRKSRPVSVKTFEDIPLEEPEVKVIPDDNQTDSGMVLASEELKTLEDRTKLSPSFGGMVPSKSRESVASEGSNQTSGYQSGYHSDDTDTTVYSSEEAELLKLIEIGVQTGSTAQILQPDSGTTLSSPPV
As to the kind of experiment: Kinase inhibition assay, KDR.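 Further: purified full-length human KDR, 30 min preincubation with compound, then 1 h reaction with ATP and Ulight-Jak1 peptide substrate, phosphorylation read by Lance Europium antibody detection.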 The test is classed as biochemical. Particulars: biochemical potency.

For test [8], the target named is T8, EGFR mutant T790M (Homo sapiens, UniProt P00533, T790M).
T8 construct: truncated human JAK3, EGFR mutants such as del E746-A750; purchased Carna Biosciences
T8 sequence (P00533 669-1210 T790M limits assumed): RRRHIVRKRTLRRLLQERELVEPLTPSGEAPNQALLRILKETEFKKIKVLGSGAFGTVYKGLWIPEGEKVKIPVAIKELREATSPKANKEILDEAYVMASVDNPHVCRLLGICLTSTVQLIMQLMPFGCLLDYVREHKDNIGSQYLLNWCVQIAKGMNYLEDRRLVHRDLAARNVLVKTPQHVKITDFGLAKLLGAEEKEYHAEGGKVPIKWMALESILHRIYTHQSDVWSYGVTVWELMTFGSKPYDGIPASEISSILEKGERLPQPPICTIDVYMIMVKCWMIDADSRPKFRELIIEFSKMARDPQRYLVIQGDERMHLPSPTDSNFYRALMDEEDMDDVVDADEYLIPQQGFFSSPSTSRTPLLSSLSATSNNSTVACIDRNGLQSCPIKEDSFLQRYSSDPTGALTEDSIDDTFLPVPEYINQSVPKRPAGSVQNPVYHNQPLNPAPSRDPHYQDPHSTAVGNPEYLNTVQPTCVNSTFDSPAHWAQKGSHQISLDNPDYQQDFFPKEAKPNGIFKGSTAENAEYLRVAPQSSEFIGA
As to the kind of experiment: Kinase inhibition assay, EGFR mutant T790M.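 Further: truncated human EGFR mutant enzyme preincubated two hours with compound, then ATP plus ULight-PolyGT peptide for one hour, Europium-labeled antibody LANCE detection, IC50.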 The note with it: biochemical potency.

The test system of test [9] is PC9 (EGFR del E746-A750 mutant). The experiment in a line: Cell viability assay, PC9.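 On all read-outs here: NSCLC PC9 cells, whose viability relies on EGFR del E746-A750, exposed to serially diluted compound for 72 h at 37 °C, ATPLite read-out, IC50, H2073 as EGFR wildtype line.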 The class given is cell-based. Particulars: for Selectivity over wildtype, Wildtype vs mutant H2073/PC9 (fold): cellular potency ratio; for IC50: cellular potency, 72-hour incubation, ATPLite, read-out: EGFR Mutants PC9. A general note: Cellular ATP, detected with luciferase, serves as a proxy for viable cell number.

Test [10] concerns H2073 (EGFR wildtype). As to the kind of experiment: Cell viability assay, H2073.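 Further: NSCLC cell line whose survival relies on wildtype EGFR, treated with serially diluted compound, cytotoxic effect judged from remaining cell viability.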 The class given is cell-based. The note with it: NCI-H2073; cellular potency; 72-hour incubation; ATPLite.
Test [11] deals with H1975 (EGFR L858R/T790M mutant). As to the kind of experiment: Cell viability assay, H1975.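 On all read-outs here: NSCLC cells whose survival relies on EGFR L858R/T790M, exposed 72 h to serially diluted compound, ATP-based viability readout, with the H2073 line (wildtype EGFR dependent) as wildtype comparator.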 The test is classed as cell-based. Particulars: for IC50: Homo sapiens, NCI-H1975, cellular potency, 72-hour incubation, ATPLite, read-out: EGFR Mutants H1975; for Selectivity over wildtype, Wildtype vs mutant H2073/H1975 (fold): cellular potency ratio.

Each structure is given as a SMILES string.

T6 sequence (P00533 669-1210 T790M/L858R limits assumed): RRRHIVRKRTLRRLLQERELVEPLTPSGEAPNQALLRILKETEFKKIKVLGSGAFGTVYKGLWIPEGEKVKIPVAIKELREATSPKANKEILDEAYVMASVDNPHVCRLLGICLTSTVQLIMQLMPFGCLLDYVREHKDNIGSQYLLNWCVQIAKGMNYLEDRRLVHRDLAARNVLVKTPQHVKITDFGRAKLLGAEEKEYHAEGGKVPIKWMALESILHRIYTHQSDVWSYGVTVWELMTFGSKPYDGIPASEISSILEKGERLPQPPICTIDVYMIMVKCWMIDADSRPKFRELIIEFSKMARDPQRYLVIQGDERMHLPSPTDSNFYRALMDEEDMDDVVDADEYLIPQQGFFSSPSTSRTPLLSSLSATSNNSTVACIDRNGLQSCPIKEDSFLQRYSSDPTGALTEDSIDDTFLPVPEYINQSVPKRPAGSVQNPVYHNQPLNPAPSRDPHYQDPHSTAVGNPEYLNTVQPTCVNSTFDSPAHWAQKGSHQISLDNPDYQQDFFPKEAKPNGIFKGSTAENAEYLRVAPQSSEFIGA
T1 sequence (P00533 669-1210 L858R limits assumed): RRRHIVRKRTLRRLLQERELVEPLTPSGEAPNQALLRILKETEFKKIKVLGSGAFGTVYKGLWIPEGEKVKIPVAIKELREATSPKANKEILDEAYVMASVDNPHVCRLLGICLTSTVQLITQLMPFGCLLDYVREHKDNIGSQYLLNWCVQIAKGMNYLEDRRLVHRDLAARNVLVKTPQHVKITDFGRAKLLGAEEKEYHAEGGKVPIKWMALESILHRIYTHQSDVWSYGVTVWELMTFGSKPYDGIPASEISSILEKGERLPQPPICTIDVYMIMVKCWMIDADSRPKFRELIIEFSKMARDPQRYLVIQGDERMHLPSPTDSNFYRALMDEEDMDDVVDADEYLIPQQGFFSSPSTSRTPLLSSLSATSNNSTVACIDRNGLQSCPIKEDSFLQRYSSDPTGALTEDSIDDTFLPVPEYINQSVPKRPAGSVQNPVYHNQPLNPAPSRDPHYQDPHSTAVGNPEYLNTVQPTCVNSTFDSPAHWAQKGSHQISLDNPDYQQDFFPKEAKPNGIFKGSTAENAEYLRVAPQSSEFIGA
T2 sequence (P00533 with tags, fused parts or gaps DEL746-750 limits assumed): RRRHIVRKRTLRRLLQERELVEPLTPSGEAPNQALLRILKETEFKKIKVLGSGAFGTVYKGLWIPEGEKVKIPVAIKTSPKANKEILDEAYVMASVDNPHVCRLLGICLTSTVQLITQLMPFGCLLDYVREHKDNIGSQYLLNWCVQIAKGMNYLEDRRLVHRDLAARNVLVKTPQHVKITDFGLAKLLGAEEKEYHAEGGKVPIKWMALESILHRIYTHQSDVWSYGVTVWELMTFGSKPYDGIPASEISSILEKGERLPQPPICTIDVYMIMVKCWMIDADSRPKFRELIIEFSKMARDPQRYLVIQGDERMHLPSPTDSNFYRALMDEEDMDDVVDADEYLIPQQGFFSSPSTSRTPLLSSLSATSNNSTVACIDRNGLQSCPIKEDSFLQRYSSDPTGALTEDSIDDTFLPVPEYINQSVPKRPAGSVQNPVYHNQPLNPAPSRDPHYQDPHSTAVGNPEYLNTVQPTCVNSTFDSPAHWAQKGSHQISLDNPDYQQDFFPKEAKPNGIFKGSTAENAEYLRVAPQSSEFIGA
T4 sequence (P00533 with tags, fused parts or gaps DEL746-750/T790M limits assumed): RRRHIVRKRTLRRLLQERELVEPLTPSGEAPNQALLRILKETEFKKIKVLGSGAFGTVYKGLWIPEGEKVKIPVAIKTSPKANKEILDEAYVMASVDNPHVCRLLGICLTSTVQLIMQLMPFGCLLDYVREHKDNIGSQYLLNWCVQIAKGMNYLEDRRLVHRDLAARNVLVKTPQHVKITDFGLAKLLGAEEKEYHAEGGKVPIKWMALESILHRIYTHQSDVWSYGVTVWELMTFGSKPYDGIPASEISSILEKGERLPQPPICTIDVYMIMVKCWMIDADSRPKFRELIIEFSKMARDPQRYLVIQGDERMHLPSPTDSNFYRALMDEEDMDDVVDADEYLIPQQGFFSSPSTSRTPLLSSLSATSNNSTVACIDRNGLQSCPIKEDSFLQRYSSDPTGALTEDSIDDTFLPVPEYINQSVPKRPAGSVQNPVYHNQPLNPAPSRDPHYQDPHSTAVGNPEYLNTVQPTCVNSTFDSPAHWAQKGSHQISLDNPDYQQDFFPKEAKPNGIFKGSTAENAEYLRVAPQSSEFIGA

For the molecule `C=CC(=O)Nc1cc(Nc2nccc(-n3cc(CN4CCC4)c(C)n3)n2)c(OC)cc1N1CCN(C)CC1` [Compound 17, N-(5-(4-(4-(azetidin-1-ylmethyl)-3-methyl-1H-pyrazol-1-yl)pyrimidin-2-ylamino)-4-methoxy-2-(4-methylpiperazin-1-yl)phenyl)acrylamide], the IC50 is under 20 nM in test [1]; under 20 nM in [2]; 201 to 1000 nM in test [3]; under 20 nM in test [4]; under 20 nM in test [5]; under 20 nM in [6]. Besides, the figures for the IC50 in test [7] and in [8] were 201 to 1000 nM and under 20 nM, respectively.
With `C=CC(=O)Nc1cc(Nc2ncc(C)c(-n3cc(CN4CC(O)C4)cn3)n2)c(OC)cc1N1CCOCC1` [Compound 19, N-(5-(4-(4-((3-hydroxyazetidin-1-yl)methyl)-1H-pyrazol-1-yl)-5-methylpyrimidin-2-ylamino)-4-methoxy-2-morpholinophenyl)acrylamide], the IC50 in test [1] was under 20 nM; in test [2], under 20 nM; in test [3], 20 to 200 nM; in test [4], under 20 nM; in test [9], under 20 nM; in [5], under 20 nM. Further, the IC50 in test [10] was over 1000 nM; in test [11] it was 20 to 200 nM; in [6], under 20 nM; in test [7], 201 to 1000 nM; in test [8], under 20 nM. Further, the “Selectivity over wildtype, Wildtype vs mutant H2073/PC9 (fold)” value (“Selectivity … vs mutant H2073/PC9 (fold)” for short) in test [9] was 100-200 fold. Besides, the “Selectivity over wildtype, Wildtype vs mutant H2073/H1975 (fold)” value (shortened to “Selectivity … vs mutant H2073/H1975 (fold)”) in test [11] was 20-100 fold.
Consider `C=CC(=O)Nc1cc(Nc2ncc(C)c(-n3cc(CN4C[C@@H](O)[C@@H](O)C4)c(C)n3)n2)c(OC)cc1N1CCOCC1` [Compound 25, N-(5-(4-(4-(((3R,4S)-3,4-dihydroxypyrrolidin-1-yl)methyl)-3-methyl-1H-pyrazol-1-yl)-5-methylpyrimidin-2-ylamino)-4-methoxy-2-morpholinophenyl)acrylamide], for which the IC50 in test [1] is under 20 nM; in test [2] it was under 20 nM; in [3], 201 to 1000 nM; in test [4], under 20 nM; in test [9] it was under 20 nM; in test [5], under 20 nM. Also, the IC50 in test [10] was over 1000 nM; in test [11], under 20 nM; in [6] it was under 20 nM; in test [7], over 1000 nM; in [8] it was under 20 nM. Also, in [9], the “Selectivity … vs mutant H2073/PC9 (fold)” value is on record as over 200 fold. In addition, the “Selectivity … vs mutant H2073/H1975 (fold)” value in test [11] is 101-200 fold.
With `C=CC(=O)Nc1cc(Nc2ncc(C)c(-n3cc(CN4CC(O)C4)c(C)n3)n2)c(OC)cc1N1CCN(C)CC1` [Compound 29, N-(5-(4-(4-((3-hydroxyazetidin-1-yl)methyl)-3-methyl-1H-pyrazol-1-yl)-5-methylpyrimidin-2-ylamino)-4-methoxy-2-(4-methylpiperazin-1-yl)phenyl)acrylamide], the IC50 was under 20 nM in test [1]; under 20 nM in [2]; 20 to 200 nM in [3]; under 20 nM in [4]; 20 to 200 nM in test [9]; under 20 nM in test [5]. The IC50 was over 1000 nM in test [10]; 20 to 200 nM in [11]; under 20 nM in [6]; over 1000 nM in [7]; under 20 nM in test [8]. Also, in test [9], the “Selectivity … vs mutant H2073/PC9 (fold)” value is given as under 20 fold. For the same molecule, the “Selectivity … vs mutant H2073/H1975 (fold)” value in [11] is given as under 20 fold.
Consider `C=CC(=O)Nc1cc(Nc2nccc(-n3cc(CN4CCC4)cn3)n2)c(OC)cc1N1CCOCC1` [Compound 34, N-(5-(4-(4-(azetidin-1-ylmethyl)-1H-pyrazol-1-yl)pyrimidin-2-ylamino)-4-methoxy-2-morpholinophenyl)acrylamide], for which the IC50 in test [1] was 20 to 200 nM; in test [2] it was under 20 nM; in test [3], 201 to 1000 nM; in [4], under 20 nM; in test [5], 20 to 200 nM; in test [6], under 20 nM. In addition, the IC50 is over 1000 nM in [7] and under 20 nM in [8].
As for `C=CC(=O)Nc1cc(Nc2ncc(C)c(-n3cc(CN4CCC4)cn3)n2)c(OC)cc1N1CCCOCC1` [Compound 40, N-(5-(4-(4-(azetidin-1-ylmethyl)-1H-pyrazol-1-yl)-5-methylpyrimidin-2-ylamino)-4-methoxy-2-(1,4-oxazepan-4-yl)phenyl)acrylamide], the IC50 is 20 to 200 nM in test [1]; under 20 nM in test [2]; over 1000 nM in test [3]; under 20 nM in [4]; under 20 nM in [5]; under 20 nM in test [6]. Besides, the IC50 in [7] is over 1000 nM; in test [8], under 20 nM.
Turning to `C=CC(=O)Nc1cc(Nc2nccc(-n3cc(CN(C)C)c(C)n3)n2)c(OC)cc1N1CCN(C)CC1` [Compound 47, N-(5-(4-(4-((dimethylamino)methyl)-3-methyl-1H-pyrazol-1-yl)pyrimidin-2-ylamino)-4-methoxy-2-(4-methylpiperazin-1-yl)phenyl)acrylamide], the IC50 is under 20 nM in test [1]; under 20 nM in [2]; 201 to 1000 nM in [3]; under 20 nM in test [4]; under 20 nM in test [5]; under 20 nM in test [6]. Further, the results for the IC50 in [7] and in test [8] were over 1000 nM and under 20 nM, respectively.
For the molecule `C=CC(=O)Nc1cc(Nc2ncc(Cl)c(-n3cc(CN4CC(O)C4)c(C)n3)n2)c(OC)cc1N1CCOCC1` [Compound 49, N-(5-(5-chloro-4-(4-((3-hydroxyazetidin-1-yl)methyl)-3-methyl-1H-pyrazol-1-yl)pyrimidin-2-ylamino)-4-methoxy-2-morpholinophenyl)acrylamide], the IC50 in [1] was under 20 nM; in [2], under 20 nM; in test [3] it was 201 to 1000 nM; in test [4], under 20 nM; in test [5], under 20 nM; in [6], under 20 nM. Besides, the IC50 in [7] is over 1000 nM; in test [8] it was under 20 nM.
In the case of `C=CC(=O)Nc1cc(Nc2nccc(-n3cc(CN4CCC4)c(C)n3)n2)c(OC)cc1-c1ccccc1` [Compound 65, N-(4-(4-(4-(azetidin-1-ylmethyl)-3-methyl-1H-pyrazol-1-yl)pyrimidin-2-ylamino)-5-methoxybiphenyl-2-yl)acrylamide], the IC50 was 20 to 200 nM in test [1]; under 20 nM in [2]; over 1000 nM in test [3]; under 20 nM in test [4]; 20 to 200 nM in test [5]; under 20 nM in test [6]. Moreover, the IC50 in test [7] was over 1000 nM; in test [8], 201 to 1000 nM.
Consider `C=CC(=O)Nc1cc(Nc2nccc(-n3cc(CN4CCC4)c(-c4ccc(C)cc4)n3)n2)c(OC)cc1N1CCOCC1` [Compound 82, N-(5-(4-(4-(azetidin-1-ylmethyl)-3-p-tolyl-1H-pyrazol-1-yl)pyrimidin-2-ylamino)-4-methoxy-2-morpholinophenyl)acrylamide], for which the IC50 was 20 to 200 nM in test [1]; under 20 nM in test [2]; over 1000 nM in test [3]; under 20 nM in [4]; 20 to 200 nM in test [9]; over 1000 nM in test [10]. The values for the IC50 in test [11], in [6] and in [7] were 20 to 200 nM, under 20 nM and over 1000 nM, respectively. Moreover, the “Selectivity … vs mutant H2073/PC9 (fold)” value in test [9] is given as 101-200 fold. Further, the “Selectivity … vs mutant H2073/H1975 (fold)” value in test [11] is reported as 101-200 fold.
On to `C=C(F)C(=O)Nc1cc(Nc2nccc(-n3cc(CN4CCC4)c(-c4ccccc4)n3)n2)c(OC)cc1N1CCOCC1` [Compound 159, N-(5-(4-(4-(azetidin-1-ylmethyl)-3-phenyl-1H-pyrazol-1-yl)pyrimidin-2-ylamino)-4-methoxy-2-morpholinophenyl)-2-fluoroacrylamide, reference compound], for which the IC50 in test [1] is over 1000 nM; in test [2], over 1000 nM; in test [3], over 1000 nM; in test [4] it was 20 to 200 nM; in test [9] it was over 1000 nM; in test [10], over 1000 nM. Besides, the IC50 in [11] was over 1000 nM; in test [6], 20 to 200 nM; in test [8], over 1000 nM. Moreover, the “Selectivity … vs mutant H2073/PC9 (fold)” value in test [9] was under 20 fold. The “Selectivity … vs mutant H2073/H1975 (fold)” value in test [11] was under 20 fold.
